The subject of series [1] is house flies, Musca domestica. Put plainly: insecticidal activity against house flies, topical application, mortality at 24 h. It counts as in vivo. Conditions: read-out: House flies LD50. The procedure:
(§1) Representative compounds of the N-arylthio- and N-alkylthiosulfinylcarbamate esters of the invention were tested for insecticidal activity against two insect species, house flies, Musca domestica, and mosquito larvae, Culex pipiens. Stock 1% concentrated solutions of each of the test compounds were made in acetone, and such solutions diluted with acetone to a concentration of 0.001-0.1%. House flies were treated topically on the notum by 1 μl of each of the diluted acetone solutions and percent mortality was counted 24 hours after application. Insects were held at a constant temperature of 60° F. Larvicidal activity was determined by applying 1 ml of the acetone solution in 100 ml of water containing 20 3rd instar mosquito larvae. Results are presented as LD50 in μg/g for house flies and LC50 in ppm for mosquito larvae.

A further series can be described thus: in vivo. The following applies: mouse, po. The protocol:
Mammalian toxicity was determined against Swiss white mice. The test compound was applied orally using corn oil as the carrier.

The test system of series [2] is mosquito larvae, Culex pipiens. Put plainly: larvicidal activity against mosquito larvae. The class given is in vivo. The following applies: 3rd instar mosquito larvae, 1 ml acetone solution in 100 ml water. The procedure: as §1
[3] abbreviates: house flies, topical on notum, 1 μl acetone solution, 24 hours.

Converted amounts (≈) assume the structure as drawn. Where two headings read alike, the source gives them in different places.

Regarding `CC(C)c1cccc(OC(=O)N(C)[S+]([O-])SC(C)(C)C)c1` (centres unmarked) [Example X, 3-isopropylphenyl (methyl)(t-butylthiosulfinyl)carbamate], the LD50 came to 75 mg/kg in series [1] (topical, 24 h) and 250 mg/kg in “in vivo”.

In the case of `CCCCS[S+]([O-])N(C)C(=O)Oc1ccccc1OC(C)C` (centres unmarked) [Example VI, 2-isopropoxyphenyl (methyl)(n-butylthiosulfinyl)carbamate], the LD50 worked out at 31 mg/kg in series [1] (topical, 24 h) and 1050 mg/kg in the series “in vivo”.

With `CN(C(=O)Oc1cccc2c1OC(C)(C)C2)[S+]([O-])Sc1ccc(C(C)(C)C)cc1` (centres unmarked) [IV, 2,3-dihydro-2,2-dimethylbenzofuranyl-7 (methyl)(4-t-butylphenylthiosulfinyl)carbamate], the LD50 in series [1] (topical, 24 h) came to 11.8 mg/kg; in the series “in vivo”, 92 mg/kg.

Consider `CCCCCCCCCCCCS[S+]([O-])N(C)C(=O)ON=CC(C)(C)SC` (centres unmarked) [XII, 2-methyl-2-(methylthio)propionaldehyde O-[(methyl)(dodecylthiosulfinyl)carbamoyl]oxime], for which, in series [1] (setting [3]), the LD50 came out at 12 mg/kg.

On to `CSC(C)=NOC(=O)N(C)[S+]([O-])SC(C)(C)C` (centres unmarked) [VIII, S-methyl N-[N'-methyl-N'-t-butylthiosulfinylcarbamoyloxy]thioacetimidate], for which the LD50 was 5.5 mg/kg in series [1] (setting [3]) and 135 mg/kg in “in vivo”.

As for `CNC(=O)Oc1ccccc1OC(C)C` [2-isopropoxyphenyl methylcarbamate, reference compound], the LD50 in “in vivo” is 60 mg/kg.

Regarding `CN(C(=O)Oc1cccc2ccccc12)[S+]([O-])SC(C)(C)C` (centres unmarked) [XIII, 1-naphthyl (methyl)(t-butylthiosulfinyl)carbamate], the LD50 in series [1] (topical, 24 h) is 235 mg/kg; in “in vivo” it was over 1000 mg/kg.

With `CN(C(=O)Oc1cccc2ccccc12)[S+]([O-])Sc1ccccc1` (centres unmarked) [XIV, 1-naphthyl (methyl)(phenylthiosulfinyl)carbamate], the LD50 is 350 mg/kg in series [1] (topical, 24 h) and over 1000 mg/kg in “in vivo”.

For `Cc1cc(C(C)(C)C)ccc1S[S+]([O-])N(C)C(=O)Oc1cccc(C(C)C)c1` (centres unmarked) [XI, 3-isopropylphenyl (methyl)(2-methyl-4-t-butylphenylthiosulfinyl)carbamate], the LD50 is 62.5 mg/kg in series [1] (topical, 24 h) and 450 mg/kg in “in vivo”.

For `CNC(=O)Oc1cccc2c1OC(C)(C)C2` [carbofuran, 2,3-dihydro-2,2-dimethyl-7-benzofuranyl methylcarbamate, reference compound], the LD50 in series [1] (topical, 24 h) is about 6.5 mg/kg; in “in vivo”, 2 to 8 mg/kg.

With `CN(C(=O)Oc1cccc2c1OC(C)(C)C2)[S+]([O-])Sc1ccccc1` (centres unmarked) [III, 2,3-dihydro-2,2-dimethylbenzofuranyl-7 (methyl)(phenylthiosulfinyl)carbamate], the LD50 in series [1] (topical, 24 h) was 7 mg/kg; in “in vivo”, 32 mg/kg. In series [2], this compound returned an LC50 of 0.05 µg/mL (≈ 0.132 µM).

For `Cc1cc(C(C)(C)C)ccc1S[S+]([O-])N(C)C(=O)Oc1ccccc1OC(C)C` (centres unmarked) [VII, 2-isopropoxyphenyl (methyl)(2-methyl-4-t-butylphenylthiosulfinyl)carbamate], the LD50 in series [1] (topical, 24 h) is 27 mg/kg; in “in vivo” it was over 1000 mg/kg.

Consider `Cc1cc(C(C)(C)C)ccc1S[S+]([O-])N(C)C(=O)Oc1cccc2c1OC(C)(C)C2` (centres unmarked) [Example V, 2,3-dihydro-2,2-dimethylbenzofuranyl-7 (methyl)(2-methyl-4-t-butylphenylthiosulfinyl)carbamate], for which the LD50 in series [1] (topical, 24 h) is 8.8 mg/kg; in the series “in vivo”, 70 mg/kg.

Take `CN(C(=O)Oc1cccc2c1OC(C)(C)C2)[S+]([O-])SC(C)(C)C` (centres unmarked) [II, 2,3-dihydro-2,2-dimethylbenzofuranyl-7 (methyl)(t-butylthiosulfinyl)carbamate]: the LD50 was found to be 9 mg/kg in series [1] (topical, 24 h) and 70 mg/kg in “in vivo”. This compound displayed an LC50 in series [2] of 0.01 µg/mL (≈ 0.028 µM).

`CCCCS[S+]([O-])N(C)C(=O)Oc1cccc2c1OC(C)(C)C2` (centres unmarked) [Example I, 2,3-dihydro-2,2-dimethylbenzofuranyl-7 (methyl)(n-butylthiosulfinyl)carbamate]: the LD50 in series [1] (topical, 24 h) is 16.5 mg/kg; in the series “in vivo”, 45 mg/kg.

As to `CSC(C)=NOC(=O)N(C)[S+]([O-])Sc1ccccc1` (centres unmarked) [IX, S-methyl N-[N'-methyl-N'-phenylthiosulfinylcarbamoyloxy]thioacetimidate], the LD50 turned out to be 6.5 mg/kg in series [1] (setting [3]) and 150 mg/kg in “in vivo”.

Source of the values: US4262015A, “N-alkylthio- and N-arylthiosulfinylcarbamate esters” (priority 1979, dated 1981).
